*1 amine or outer side, *2 acyl side, *3 side chain or, on linkers, in order; H or OH if unused. Where a SMILES comes first, the peptide text is derived from it. Bridges are numbered along the chain shown (N, C = ends). [ ]: non-standard residue; d: D form. The star is where a group is joined. ξ: configuration not given here. pTerphenylCO(4''-OnC5H11) = CCCCCOc1ccc(-c2ccc(-c3ccc(C(=O)*)cc3)cc2)cc1; ξOrn(4,5-diOH) = O=C(C(CC(O)C(O)N[*:3])N[*:1])[*:2]; ξhTyr(βξ-OH,γξ-OH) = NC(C(=O)O)C(O)C(O)c1ccc(O)cc1; ξPro(3ξ-OH,4ξ-Me) = CC1CNC(C(=O)O)C1O; Hyp = O=C(O)[CH]1C[CH](O)CN1
Tests used:
[1] = Solubility studies of Com 6(a) in surfactant test solutions, reverse phase HPLC; assay type: physicochemical; settings: room temperature
Method: Solubility studies were performed at room temperature by transferring 5 ml of test solution (surfactant in water optionally containing a bulking agent, a buffer or a stabilizing agent) and 50 mg of Com 6(a) into a glass test tube. The test tubes were agitated overnight and examined for excess solid. Test tubes containing excess solid were removed for analysis. […] All samples were allowed to stand 1 h, supernatant was removed, filtered and analyzed by reverse phase HPLC to determine the potency of Com 6(a) per Ml of solution.

[2] = Stability of solution formulations, related substances by reverse phase HPLC, storage at 40° C.; assay type: physicochemical
Method: The stability of solution and freeze-dried formulations was evaluated by monitoring a sample of the formulation for the percent increase in related substances by reverse phase HPLC at initial, 2 weeks and 4 weeks of storage at 40° C.

CCCCCOc1ccc(-c2ccc(-c3ccc(C(=O)NC4CC(O)C(O)NC(=O)C5C(O)C(C)CN5C(=O)C(C(C)O)NC(=O)C(C(O)C(O)c5ccc(O)cc5)NC(=O)C5CC(O)CN5C(=O)C(C(C)O)NC4=O)cc3)cc2)cc1 (stereo not drawn) [Compound 6(a)] ({pTerphenylCO(4''-OnC5H11)}-[ξOrn(4,5-diOH)]T[Hyp][ξhTyr(βξ-OH,γξ-OH)]T[ξPro(3ξ-OH,4ξ-Me)]; lactam 1-C; configuration not given here)
Comp6(a) Potency (solubility) ([1]; Poly 20 [5]/Poly 80 [5]): 4800 µg/mL | Comp6(a) Potency (solubility) ([1]; Poly 20 [5]/Poly 80 [10]): 8000 µg/mL | Comp6(a) Potency (solubility) ([1]; Poly 20 [5]/pluronic F68 [10]): 1130 µg/mL | Comp6(a) Potency (solubility) ([1]; Poly 80 [5]): 1000 µg/mL | Comp6(a) Potency (solubility) ([1]; Poly 80 [10]): 4400 µg/mL | Comp6(a) Potency (solubility) ([1]; Poly 80 [15]): 7200 µg/mL | Comp6(a) Potency (solubility) ([1]; Poly 80 [20]/sodium taurodeoxycholate [20]): 43120 µg/mL | Comp6(a) Potency (solubility) ([1]; Poly 80 [25]): 13200 µg/mL | Comp6(a) Potency (solubility) ([1]; Sur None): <100 µg/mL | Comp6(a) Potency (solubility) ([1]; ethoxylated castor oil (cremophor EL) [25]): 11000 µg/mL | Percent Related Substances ([2]; 6(a) 1 mg/ml, Poly 80(25), Ace(0.6), Man(50), 0 wks): 3.15% | Percent Related Substances ([2]; 6(a) 1 mg/ml, Poly 80(25), Ace(0.6), Man(50), 2 wks): 11.37% | Percent Related Substances ([2]; 6(a) 1 mg/ml, Poly 80(25), Ace(0.6), Man(50), 4 wks): 19.44% | Percent Related Substances ([2]; 6(a) 1 mg/ml, Poly 80(25), Ace(3), Man(50), 0 wks): 3.33% | Percent Related Substances ([2]; 6(a) 1 mg/ml, Poly 80(25), Ace(3), Man(50), 2 wks): 12.20% | Percent Related Substances ([2]; 6(a) 1 mg/ml, Poly 80(25), Ace(3), Man(50), 4 wks): 18.29% | Percent Related Substances ([2]; 6(a) 1 mg/ml, Poly 80(25), Ace(6), Man(50), 0 wks): 3.27% | Percent Related Substances ([2]; 6(a) 1 mg/ml, Poly 80(25), Ace(6), Man(50), 2 wks): 11.07% | Percent Related Substances ([2]; 6(a) 1 mg/ml, Poly 80(25), Ace(6), Man(50), 4 wks): 19.59% | Percent Related Substances ([2]; 6(a) 1 mg/ml, Poly 80(25), Cit(1.9), Man(50), 0 wks): 3.42% | Percent Related Substances ([2]; 6(a) 1 mg/ml, Poly 80(25), Cit(1.9), Man(50), 2 wks): 8.91% | Percent Related Substances ([2]; 6(a) 1 mg/ml, Poly 80(25), Cit(1.9), Man(50), 4 wks): 18.04% | Percent Related Substances ([2]; 6(a) 1 mg/ml, Poly 80(25), Cit(9.6), Man(50), 0 wks): 3.36% | Percent Related Substances ([2]; 6(a) 1 mg/ml, Poly 80(25), Cit(9.6), Man(50), 2 wks): 9.25% | Percent Related Substances ([2]; 6(a) 1 mg/ml, Poly 80(25), Cit(9.6), Man(50), 4 wks): 17.29% | Percent Related Substances ([2]; 6(a) 1 mg/ml, Poly 80(25), Cit(19.2), Man(50), 0 wks): 3.47% | Percent Related Substances ([2]; 6(a) 1 mg/ml, Poly 80(25), Cit(19.2), Man(50), 2 wks): 9.70% | Percent Related Substances ([2]; 6(a) 1 mg/ml, Poly 80(25), Cit(19.2), Man(50), 4 wks): 18.02% | Percent Related Substances ([2]; 6(a) 10 mg/ml, Poly 80(5) + Poly 20(20), Ace(6), 0 wks): 2.67% | Percent Related Substances ([2]; 6(a) 10 mg/ml, Poly 80(5) + Poly 20(20), Ace(6), 2 wks): 9.77% | Percent Related Substances ([2]; 6(a) 10 mg/ml, Poly 80(5) + Poly 20(20), Ace(6), 4 wks): 15.57% | Percent Related Substances ([2]; 6(a) 10 mg/ml, Poly 80(15) + Poly 20(10), Ace(6), 0 wks): 2.70% | Percent Related Substances ([2]; 6(a) 10 mg/ml, Poly 80(15) + Poly 20(10), Ace(6), 2 wks): 10.55% | Percent Related Substances ([2]; 6(a) 10 mg/ml, Poly 80(15) + Poly 20(10), Ace(6), 4 wks): 15.34% | Percent Related Substances ([2]; 6(a) 10 mg/ml, Poly 80(20) + Poly 20(5), Ace(6), 0 wks): 2.65% | Percent Related Substances ([2]; 6(a) 10 mg/ml, Poly 80(20) + Poly 20(5), Ace(6), 2 wks): 11.06% | Percent Related Substances ([2]; 6(a) 10 mg/ml, Poly 80(20) + Poly 20(5), Ace(6), 4 wks): 15.44% | Percent Related Substances ([2]; 6(a) 10 mg/ml, Poly 80(25) only, no buffer, 0 wks): 3.62% | Percent Related Substances ([2]; 6(a) 10 mg/ml, Poly 80(25) only, no buffer, 2 wks): 18.71% | Percent Related Substances ([2]; 6(a) 10 mg/ml, Poly 80(25) only, no buffer, 4 wks): 27.91% | Percent Related Substances ([2]; 6(a) 10 mg/ml, Poly 80(25), Ace(3), 0 wks): 2.51% | Percent Related Substances ([2]; 6(a) 10 mg/ml, Poly 80(25), Ace(3), 2 wks): 9.46% | Percent Related Substances ([2]; 6(a) 10 mg/ml, Poly 80(25), Ace(3), 4 wks): 14.39% | Percent Related Substances ([2]; 6(a) 10 mg/ml, Poly 80(25), Ace(6), co-solvent 20% PEG400, 0 wks): 2.83% | Percent Related Substances ([2]; 6(a) 10 mg/ml, Poly 80(25), Ace(6), co-solvent 20% PEG400, 2 wks): 9.69% | Percent Related Substances ([2]; 6(a) 10 mg/ml, Poly 80(25), Ace(6), co-solvent 20% PEG400, 4 wks): 14.35% | Percent Related Substances ([2]; 6(a) 10 mg/ml, Poly 80(25), Ace(6), co-solvent 20% PPG, 0 wks): 2.71% | Percent Related Substances ([2]; 6(a) 10 mg/ml, Poly 80(25), Ace(6), co-solvent 20% PPG, 2 wks): 10.58% | Percent Related Substances ([2]; 6(a) 10 mg/ml, Poly 80(25), Ace(6), co-solvent 20% PPG, 4 wks): 13.40% | Percent Related Substances ([2]; 6(a) 10 mg/ml, Poly 80(25), Ace(6), co-solvent 40% PEG400, 0 wks): 2.57% | Percent Related Substances ([2]; 6(a) 10 mg/ml, Poly 80(25), Ace(6), co-solvent 40% PEG400, 2 wks): 10.38% | Percent Related Substances ([2]; 6(a) 10 mg/ml, Poly 80(25), Ace(6), co-solvent 40% PEG400, 4 wks): 13.36% | Percent Related Substances ([2]; 6(a) 10 mg/ml, Poly 80(25), Ace(6), co-solvent 40% PPG, 0 wks): 2.72% | Percent Related Substances ([2]; 6(a) 10 mg/ml, Poly 80(25), Ace(6), co-solvent 40% PPG, 2 wks): 9.84% | Percent Related Substances ([2]; 6(a) 10 mg/ml, Poly 80(25), Ace(6), co-solvent 40% PPG, 4 wks): 12.65%
